Reference: the NIST ThermoML archive (doi:10.1016/j.jct.2016.04.003)
± gives the expanded uncertainty stated by the source.

Assay: xn = mol fraction of the nth substance listed
Settings: for surface tension liquid-gas: Drop volume; for viscosity / speed of sound / mass density: 99 kPa, Liquid; for viscosity: Capillary tube (Ostwald / Ubbelohde) method; for speed of sound: Frequency=3 MHz, Sing-around technique in a fixed-path interferometer; for mass density: Vibrating tube method

CCC[n+]1ccccc1.F[B-](F)(F)F [1-propylpyridinium tetrafluoroborate] + O
Settings	mass density [kg/m3]	speed of sound [m/s]	surface tension liquid-gas [mN/m]	viscosity [mPa·s]
313.15 K, x1 = 0.0185	1026 ± 1.1	1559 ± 1.3	–	–
313.15 K, x1 = 0.028	–	–	56 ± 0.6	–
313.15 K, x1 = 0.0287	1041.1 ± 1	1568.7 ± 1.2	–	–
313.15 K, x1 = 0.0466	1063.1 ± 1	1580.6 ± 1.2	–	–
313.15 K, x1 = 0.0492	–	–	–	0.843 ± 0.068
313.15 K, x1 = 0.0551	–	–	53.7 ± 0.6	–
313.15 K, x1 = 0.0766	1091.4 ± 1	1593 ± 1.3	–	–
313.15 K, x1 = 0.0952	–	–	–	1.122 ± 0.09
313.15 K, x1 = 0.0964	1105.8 ± 1	1598.5 ± 1.3	–	–
313.15 K, x1 = 0.1008	–	–	51.7 ± 0.6	–
313.15 K, x1 = 0.1522	–	–	50.5 ± 0.6	–
313.15 K, x1 = 0.1948	–	–	–	1.755 ± 0.14
313.15 K, x1 = 0.1965	–	–	49.9 ± 0.6	–
313.15 K, x1 = 0.2011	1154.3 ± 1	1610.4 ± 1.3	–	–
313.15 K, x1 = 0.2588	–	–	–	2.326 ± 0.19
313.15 K, x1 = 0.2858	1176.6 ± 1	1610.4 ± 1.4	–	–
313.15 K, x1 = 0.2947	–	–	49.8 ± 0.6	–
313.15 K, x1 = 0.3451	–	–	49.6 ± 0.6	–
313.15 K, x1 = 0.3891	–	–	–	4.172 ± 0.34
313.15 K, x1 = 0.3968	–	–	49.5 ± 0.6	–
313.15 K, x1 = 0.3993	1196.3 ± 1	1607.7 ± 1.5	–	–
313.15 K, x1 = 0.4779	–	–	49.5 ± 0.6	–
313.15 K, x1 = 0.4894	–	–	–	7.412 ± 0.6
313.15 K, x1 = 0.4979	1208.2 ± 1.1	1604.7 ± 1.6	–	–
313.15 K, x1 = 0.5772	1215.5 ± 1.1	1602.4 ± 1.7	–	–
313.15 K, x1 = 0.5827	–	–	49.6 ± 0.6	–
313.15 K, x1 = 0.5942	–	–	–	10.92 ± 0.88
313.15 K, x1 = 0.6015	1217.5 ± 1.1	1601.9 ± 1.7	–	–
313.15 K, x1 = 0.6695	1222.5 ± 1.2	1600.6 ± 1.8	–	–
313.15 K, x1 = 0.6846	–	–	49.6 ± 0.6	–
313.15 K, x1 = 0.6952	–	–	–	16.2 ± 1.3
313.15 K, x1 = 0.7309	1226.5 ± 1.2	1599.9 ± 1.9	–	–
313.15 K, x1 = 0.7771	1229.4 ± 1.3	1599.7 ± 2	–	–
313.15 K, x1 = 0.7861	–	–	49.6 ± 0.7	–
313.15 K, x1 = 0.7903	–	–	–	23.05 ± 1.9
313.15 K, x1 = 0.8395	1232.9 ± 1.4	1600.3 ± 2.1	–	–
313.15 K, x1 = 0.8862	–	–	49.6 ± 0.7	–
313.15 K, x1 = 0.8982	–	–	–	35.15 ± 2.8
313.15 K, x1 = 0.9054	1236.7 ± 1.4	1601.8 ± 2.2	–	–
313.15 K, x1 = 0.9425	–	–	49.7 ± 0.7	–
313.15 K, x1 = 0.943	–	–	–	43.35 ± 3.5
313.15 K, x1 = 0.9633	1240.1 ± 1.5	1604.2 ± 2.3	–	–
313.15 K, x1 = 1	1242.4 ± 1.6	1606.3 ± 2.3	49.8 ± 0.7	56.02 ± 4.5
323.15 K, x1 = 0.0185	1020.8 ± 1.1	1563.2 ± 1.2	–	–
323.15 K, x1 = 0.028	–	–	54.5 ± 0.6	–
323.15 K, x1 = 0.0287	1035.6 ± 1	1569.4 ± 1.2	–	–
323.15 K, x1 = 0.0466	1057 ± 1	1576.8 ± 1.2	–	–
323.15 K, x1 = 0.0492	–	–	–	0.714 ± 0.057
323.15 K, x1 = 0.0551	–	–	52.2 ± 0.6	–
323.15 K, x1 = 0.0766	1084.7 ± 1	1583.8 ± 1.2	–	–
323.15 K, x1 = 0.0952	–	–	–	0.889 ± 0.071
323.15 K, x1 = 0.0964	1098.9 ± 1	1586.7 ± 1.3	–	–
323.15 K, x1 = 0.1008	–	–	50.4 ± 0.5	–
323.15 K, x1 = 0.1522	–	–	49.2 ± 0.5	–
323.15 K, x1 = 0.1948	–	–	–	1.379 ± 0.11
323.15 K, x1 = 0.1965	–	–	48.6 ± 0.5	–
323.15 K, x1 = 0.2011	1146.9 ± 1	1591.5 ± 1.3	–	–
323.15 K, x1 = 0.2588	–	–	–	1.808 ± 0.14
323.15 K, x1 = 0.2858	1169.2 ± 1	1589.7 ± 1.4	–	–
323.15 K, x1 = 0.2947	–	–	48.7 ± 0.6	–
323.15 K, x1 = 0.3451	–	–	48.6 ± 0.6	–
323.15 K, x1 = 0.3891	–	–	–	3.105 ± 0.25
323.15 K, x1 = 0.3968	–	–	48.5 ± 0.6	–
323.15 K, x1 = 0.3993	1189 ± 1	1586 ± 1.5	–	–
323.15 K, x1 = 0.4779	–	–	48.5 ± 0.6	–
323.15 K, x1 = 0.4894	–	–	–	5.345 ± 0.43
323.15 K, x1 = 0.4979	1200.9 ± 1.1	1582.6 ± 1.6	–	–
323.15 K, x1 = 0.5772	1208.2 ± 1.1	1580 ± 1.7	–	–
323.15 K, x1 = 0.5827	–	–	48.7 ± 0.6	–
323.15 K, x1 = 0.5942	–	–	–	8.242 ± 0.66
323.15 K, x1 = 0.6015	1210.1 ± 1.1	1579.4 ± 1.7	–	–
323.15 K, x1 = 0.6695	1215.1 ± 1.2	1577.7 ± 1.8	–	–
323.15 K, x1 = 0.6846	–	–	48.7 ± 0.6	–
323.15 K, x1 = 0.6952	–	–	–	12.05 ± 0.97
323.15 K, x1 = 0.7309	1219.2 ± 1.2	1576.7 ± 1.9	–	–
323.15 K, x1 = 0.7771	1222.1 ± 1.3	1576.2 ± 2	–	–
323.15 K, x1 = 0.7861	–	–	48.8 ± 0.7	–
323.15 K, x1 = 0.7903	–	–	–	15.97 ± 1.3
323.15 K, x1 = 0.8395	1225.8 ± 1.3	1576.6 ± 2.1	–	–
323.15 K, x1 = 0.8862	–	–	48.9 ± 0.7	–
323.15 K, x1 = 0.8982	–	–	–	23.99 ± 1.9
323.15 K, x1 = 0.9054	1229.6 ± 1.4	1578.1 ± 2.2	–	–
323.15 K, x1 = 0.9425	–	–	48.9 ± 0.7	–
323.15 K, x1 = 0.943	–	–	–	28.38 ± 2.3
323.15 K, x1 = 0.9633	1233 ± 1.5	1580.8 ± 2.3	–	–
323.15 K, x1 = 1	1235.3 ± 1.6	1583.3 ± 2.3	49 ± 0.7	36.99 ± 3
